Assay results reported in patent publication US8754038B2, “Template-fixed peptidomimetics with CCR10 antagonistic activity” (priority 2009, dated 2014).
Numbered stars: 1 amine (or outer) side, 2 acyl side, 3 side chain; on linkers, the order of the positions; unused ones are H or OH. Square brackets hold non-standard residues; d marks the D form. Side chains are listed from the residue outwards. Peptide text beside a SMILES is read from it. * marks the point of attachment. X4 = N#Cc1cccc(C[C@@H]2C[C@@H](C(=O)[*:2])N([*:1])C2)c1; Pro(trans-4-cHex) = O=C(O)[C@@H]1C[C@@H](C2CCCCC2)CN1; X1 = O=C([C@@H]1C[C@@H](Cc2ccc(Br)cc2)CN1[*:1])[*:2]; Trp(6-Cl) = N[C@@H](Cc1c[nH]c2cc(Cl)ccc12)C(=O)O; Phe(4-CF3) = N[C@@H](Cc1ccc(C(F)(F)F)cc1)C(=O)O; X7 = O=C([C@H](CCNCc1c[nH]cn1)N[*:1])[*:2]; Oic = O=C(O)[C@@H]1C[C@@H]2CCCC[C@@H]2N1; Phe(4-CN) = N#Cc1ccc(C[C@H](N)C(=O)O)cc1; X13 = CC1(C)CC[C@@H](C(=O)[*:2])N1[*:1]; Phe(4-F) = N[C@@H](Cc1ccc(F)cc1)C(=O)O; Hyp = O=C(O)[C@@H]1C[C@@H](O)CN1; MeOCH2CH2OCH2CO = COCCOCC(=O)*; N(Me)CH2CH2OMe = COCCN(C)*; dPip = O=C(O)[C@H]1CCCCN1; Thz = O=C(O)[C@@H]1CSCN1; Ac5c = NC1(C(=O)O)CCCC1; Dab = NCC[C@H](N)C(=O)O; X8 = Cn1cncc1CCC(=O)*; CO = O=C([*:1])[*:2]; NHCH2CH2OMe = COCCN*; Bn = c1ccc(C*)cc1; Ms = CS(=O)(=O)*

Assays:
human CCR10 [1] = molecular target: T1, human CCR10 (Homo sapiens, UniProt P46092); test: Calcium flux assay (CCR10 antagonism, CCL27 as agonist); type: cell-based; settings: CCR10 transfected 300-19 murine pre-B cells; CCL27 30 nM
T1 construct: expressed in transfected cells
T1 sequence (P46092 1-362): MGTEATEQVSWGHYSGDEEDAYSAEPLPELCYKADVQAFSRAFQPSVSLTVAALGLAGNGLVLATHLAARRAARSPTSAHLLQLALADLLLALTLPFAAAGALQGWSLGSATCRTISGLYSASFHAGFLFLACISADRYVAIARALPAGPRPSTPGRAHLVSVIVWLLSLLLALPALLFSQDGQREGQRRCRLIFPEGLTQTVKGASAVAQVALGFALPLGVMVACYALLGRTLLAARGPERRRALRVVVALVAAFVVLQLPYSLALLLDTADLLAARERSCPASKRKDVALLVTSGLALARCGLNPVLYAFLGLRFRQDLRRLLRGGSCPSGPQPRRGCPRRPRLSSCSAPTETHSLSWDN
Experimental: (§1) Lyophilized peptides were weighed on a Microbalance (Mettler MX5) and dissolved in aqueous 90% DMSO to a final concentration of 10 mM unless otherwise stated. Stock solutions were kept at +4° C., and protected from light.
(§2) Peptides were assayed for CCR10 antagonism in a calcium flux assay and in a chemotaxis assay using a mouse pre-B cell line 300-19 stably transfected with human CCR10, and with human CCL27 as agonist.
The calcium flux release was assessed using CCR10 transfected 300-19 murine pre-B cells. These cells were labeled as a batch with Calcium4 Reagent (Molecular Devices, Sunnyvale, Calif.) in HBSS buffer for 60 min.
After dispensing 8×10^4 cells in each well of a 384-well black plate, a concentrated solution of the β-hairpin peptidomimetics of this invention in HBSS+0.1% BSA+0.1% DMSO (final concentration) was added to the cells. The entire plate was centrifuged and placed in a Flexstation II (Molecular Devices) automated plate reader. After reading a 20 s baseline, the Flexstation dispensed CCL27 (RnD systems) at a final concentration of 30 nM in HBSS+0.1% BSA onto the cells and calcium flux was measured for an additional 70 s.
Alternatively a FIipR384 (Molecular Devices) was used for read out of the 384-well plates. In this case about 8×10^4 cells were placed in each well, centrifuged, placed in the FlipR and after 5 s of baseline reading, the β-hairpin peptidomimetics in HBSS+0.1% BSA+0.1% DMSO (final concentration) were added. After an incubation time of 5 min, the CCL27 solution was added to the mixture and the calcium flux was measured for 200 s.
The maximum signal was determined from control wells without inhibitor. Percentage of inhibition was calculated from a range of compound concentrations, which were subsequently used to calculate IC50 values (Softmax Pro, Molecular Devices). All steps were carried out at room temperature.

human CCR10 [2] = molecular target: T1, human CCR10; test: Chemotaxis assay (CCR10-transfected 300-19 cells, CCL27 gradient); type: cell-based; settings: CCR10-transfected 300-19 murine pre-B cells; 30 nM CCL27 gradient
Experimental: as §1, §2
The chemotactic response of CCR10-transfected 300-19 murine pre-B cells to a gradient of CCL27 (CTACK) was measured using disposable Transwell® assay plates from Costar (5 μm pore size) according to the protocol of the manufacturer. Briefly, cells were grown under sterile conditions at 37° C. with 5% CO2 in flasks containing RPMI+5% FCS, glutamine, penicillin/streptomycin (all media components were from Life Technologies) and the appropriate selection antibiotics (Puromycin, G418 or Tetracycline). For the assay, cells were pelleted by centrifugation, washed once in Dulbecco's phosphate buffered saline (DPBS), and resuspended to give 1×10^6 cells/ml in RPMI+0.5% bovine serum albumin (BSA). 100 μl of cell suspension was applied to the top of the assay filter. The β-hairpin peptidomimetics, diluted in the same assay medium, were added to both top and bottom chambers. The cells were allowed to migrate for 4-6 hours at 37° C. into the bottom chamber of the assay plate containing 30 nM of CCL27 (RnD systems). Migrated cells were counted using a FACS cytometer (Cytomics FC500, Beckman Coulter). Data normalization was performed using the number of any cells that had migrated in the absence of the β-hairpin peptidomimetic and the number of cells that have randomly migrated in absence of CCL27 [these values were taken as 100% (no inhibitory activity) and 0%, respectively]. From a range of compound concentrations IC50 were determined using Prism5 (GraphPad software).

Compound | IC50 (human CCR10 [1]) [nM] | IC50 (human CCR10 [2]) [nM]
NCC[C@H](N)C(=O)NCC[C@@H]1NC(=O)[C@H](Cc2c[nH]c3ccccc23)NC(=O)C2(CCCC2)NC(=O)[C@H](Cc2c[nH]c3ccccc23)NC(=O)[C@@H]2C[C@@H]3CCCC[C@@H]3N2C(=O)[C@H]2CCCN2C1=O [Ex. 71, cyclo(-Trp-Cyp-Trp-Dab(Dab)-^DPro-Oic-)] (cyclo([Ac5c]W[Dab](Dab)[dP][Oic]W)) | 567 ± 155 | 50.2
COCCOCC(=O)NCC[C@@H]1NC(=O)[C@H](Cc2c[nH]c3ccccc23)NC(=O)C2(CCCC2)NC(=O)[C@H](Cc2c[nH]c3ccccc23)NC(=O)[C@@H]2C[C@@H]3CCCC[C@@H]3N2C(=O)[C@H]2CCCN2C1=O [Ex. 72, cyclo(-Trp-Cyp-Trp-Dab(MEMCO)-^DPro-Oic-)] (cyclo([Ac5c]W[Dab](MeOCH2CH2OCH2CO)[dP][Oic]W)) | 62.8 ± 41.6 | 11.5
COCCNC(=O)NCC[C@@H]1NC(=O)[C@H](Cc2c[nH]c3ccccc23)NC(=O)C2(CCCC2)NC(=O)[C@H](Cc2c[nH]c3ccccc23)NC(=O)[C@@H]2C[C@@H]3CCCC[C@@H]3N2C(=O)[C@H]2CCCN2C1=O [Ex. 73, cyclo(-Trp-Cyp-Trp-Dab(MeO(CH2)2NHCO)-^DPro-Oic-)] (cyclo([Ac5c]W[Dab]([CO-NHCH2CH2OMe])[dP][Oic]W)) | 24.2 ± 24.5 | 5.3
COCCN(C)C(=O)NCC[C@@H]1NC(=O)[C@H](Cc2c[nH]c3ccccc23)NC(=O)C2(CCCC2)NC(=O)[C@H](Cc2c[nH]c3ccccc23)NC(=O)[C@@H]2C[C@@H]3CCCC[C@@H]3N2C(=O)[C@H]2CCCN2C1=O [Ex. 97, cyclo(-Trp-Cyp-Trp-Dab((MeO(CH2)2)(Me)NCO)-^DPro-Oic-)] (cyclo([Ac5c]W[Dab]([CO-N(Me)CH2CH2OMe])[dP][Oic]W)) | 8.1 ± 9.1 | 5.6
CS(=O)(=O)NCC[C@@H]1NC(=O)[C@H](Cc2c[nH]c3ccccc23)NC(=O)C2(CCCC2)NC(=O)[C@H](Cc2c[nH]c3ccccc23)NC(=O)[C@@H]2C[C@@H]3CCCC[C@@H]3N2C(=O)[C@H]2CCCN2C1=O [Ex. 100, cyclo(-Trp-Cyp-Trp-Dab(MeSO2)-^DPro-Oic-)] (cyclo([Ac5c]W[Dab](Ms)[dP][Oic]W)) | 0.2 ± 0.1 | 3.4
O=C1NC2(CCCC2)C(=O)N[C@@H](Cc2c[nH]c3ccccc23)C(=O)N[C@@H](CCNCc2c[nH]cn2)C(=O)N2CCC[C@@H]2C(=O)N2[C@@H](C[C@@H]3CCCC[C@@H]32)C(=O)N[C@H]1Cc1c[nH]c2ccccc12 [Ex. 106, cyclo(-Trp-Cyp-Trp-Dab(A55)-^DPro-Oic-)] (cyclo([Ac5c]W[X7][dP][Oic]W)) | 12.2 ± 3.8 | 4.8
Cn1cncc1CCC(=O)NCC[C@@H]1NC(=O)[C@H](Cc2c[nH]c3ccccc23)NC(=O)C2(CCCC2)NC(=O)[C@H](Cc2ccc(C(F)(F)F)cc2)NC(=O)[C@@H]2C[C@@H]3CCCC[C@@H]3N2C(=O)[C@H]2CCCN2C1=O [Ex. 108, cyclo(-Phe(4CF3)-Cyp-Trp-Dab(A56)-^DPro-Oic-)] (cyclo([Ac5c]W[Dab](X8)[dP][Oic][Phe(4-CF3)])) | 34.5 ± 17.3 | 2.5
NCC[C@@H]1NC(=O)[C@H](Cc2c[nH]c3ccccc23)NC(=O)C2(CCCC2)NC(=O)[C@H](Cc2c[nH]c3ccccc23)NC(=O)[C@@H]2CSCN2C(=O)[C@H]2CCCN2C1=O [compound 6, cyclo(-Trp-Cyp-Trp-Dab-^DPro-Thz-)] (cyclo([Ac5c]W[Dab][dP][Thz]W)) | 134 ± 73.3 | 19.6
NCC[C@@H]1NC(=O)[C@H](Cc2c[nH]c3ccccc23)NC(=O)C2(CCCC2)NC(=O)[C@H](Cc2c[nH]c3ccccc23)NC(=O)[C@@H]2C[C@@H](Cc3ccc(Br)cc3)CN2C(=O)[C@H]2CCCN2C1=O [compound 39, cyclo(-Trp-Cyp-Trp-Dab-^DPro-Pro((4R)4BrBn)-)] (cyclo([Ac5c]W[Dab][dP][X1]W)) | 15.8 ± 10.3 | 9
N#Cc1cccc(C[C@@H]2C[C@H]3C(=O)N[C@@H](Cc4c[nH]c5ccccc45)C(=O)NC4(CCCC4)C(=O)N[C@@H](Cc4c[nH]c5ccccc45)C(=O)N[C@@H](CCN)C(=O)N4CCC[C@@H]4C(=O)N3C2)c1 [compound 40, cyclo(-Trp-Cyp-Trp-Dab-^DPro-Pro((4R)3CNBn)-)] (cyclo([Ac5c]W[Dab][dP][X4]W)) | 27.9 ± 10.5 | 3.8
NCC[C@@H]1NC(=O)[C@H](Cc2c[nH]c3ccccc23)NC(=O)C2(CCCC2)NC(=O)[C@H](Cc2c[nH]c3ccccc23)NC(=O)[C@@H]2C[C@@H](C3CCCCC3)CN2C(=O)[C@H]2CCCN2C1=O [compound 41, cyclo(-Trp-Cyp-Trp-Dab-^DPro-Pro((4S)cHex)-)] (cyclo([Ac5c]W[Dab][dP][Pro(trans-4-cHex)]W)) | 54.3 ± 22 | 140
CC1(C)CC[C@H]2C(=O)N[C@@H](Cc3c[nH]c4ccccc34)C(=O)NC3(CCCC3)C(=O)N[C@@H](Cc3c[nH]c4ccccc34)C(=O)N[C@@H](CCN)C(=O)N3CCC[C@@H]3C(=O)N21 [compound 42, cyclo(-Trp-Cyp-Trp-Dab-^DPro-Pro(5,5Me2)-)] (cyclo(W[Ac5c]W[Dab][dP][X13])) | 82.5 ± 30.4 | 14.2
N#Cc1ccc(C[C@@H]2NC(=O)[C@@H]3C[C@@H](OCc4ccccc4)CN3C(=O)[C@H]3CCCN3C(=O)[C@H](CO)NC(=O)[C@H](Cc3ccc(F)cc3)NC(=O)C3(CCCC3)NC2=O)cc1 [compound 44, cyclo(-Phe(4CN)-Cyp-Phe(4F)-Ser-^DPro-Hyp(Bn)-)] (cyclo([Ac5c][Phe(4-F)]S[dP][Hyp](Bn)[Phe(4-CN)])) | 1.9 ± 2.1 | 13.5
NCC[C@@H]1NC(=O)[C@H](Cc2c[nH]c3ccccc23)NC(=O)C2(CCCC2)NC(=O)[C@H](Cc2c[nH]c3ccccc23)NC(=O)[C@@H]2C[C@@H](OCc3ccccc3)CN2C(=O)[C@H]2CCCN2C1=O [compound 45, cyclo(-Trp-Cyp-Trp-Dab-^DPro-Hyp(Bn)-)] (cyclo([Ac5c]W[Dab][dP][Hyp](Bn)W)) | 65.8 ± 19.6 | 14
O=C1NC2(CCCC2)C(=O)N[C@@H](Cc2c[nH]c3ccccc23)C(=O)N[C@@H](CO)C(=O)N2CCC[C@@H]2C(=O)N2C[C@H](OCc3ccccc3)C[C@H]2C(=O)N[C@H]1Cc1c[nH]c2ccccc12 [compound 46, cyclo(-Trp-Cyp-Trp-Ser-^DPro-Hyp(Bn)-)] (cyclo([Ac5c]WS[dP][Hyp](Bn)W)) | 12.6 ± 9 | 35.4
NCC[C@@H]1NC(=O)[C@H](Cc2c[nH]c3ccccc23)NC(=O)C2(CCCC2)NC(=O)[C@H](Cc2c[nH]c3cc(Cl)ccc23)NC(=O)[C@@H]2C[C@@H](OCc3ccccc3)CN2C(=O)[C@H]2CCCN2C1=O [compound 48, cyclo(-Trp(6Cl)-Cyp-Trp-Dab-^DPro-Hyp(Bn)-)] (cyclo([Ac5c]W[Dab][dP][Hyp](Bn)[Trp(6-Cl)])) | 8.5 ± 3.5 | 8.6
N#Cc1ccc(C[C@@H]2NC(=O)[C@@H]3C[C@@H](OCc4ccccc4)CN3C(=O)[C@H]3CCCN3C(=O)[C@H](CCN)NC(=O)[C@H](Cc3c[nH]c4ccccc34)NC(=O)C3(CCCC3)NC2=O)cc1 [compound 49, cyclo(-Phe(4CN)-Cyp-Trp-Dab-^DPro-Hyp(Bn)-)] (cyclo([Ac5c]W[Dab][dP][Hyp](Bn)[Phe(4-CN)])) | 181 ± 110 | 5.3
N#Cc1ccc(C[C@@H]2NC(=O)[C@@H]3C[C@@H](OCc4ccccc4)CN3C(=O)[C@H]3CCCCN3C(=O)[C@H](CO)NC(=O)[C@H](Cc3c[nH]c4ccccc34)NC(=O)C3(CCCC3)NC2=O)cc1 [compound 50, cyclo(-Phe(4CN)-Cyp-Trp-Ser-^DPip-Hyp(Bn)-)] (cyclo([Ac5c]WS[dPip][Hyp](Bn)[Phe(4-CN)])) | 0.5 ± 0.2 | 1.8
